In patent EP1401829B1, “NOVEL HETEROCYCLIC ANTIBACTERIAL COMPOUNDS” (Microbiotix, Inc., priority 2001, dated 2002):
≈ marks a conversion by molar mass, not a printed value. Where two headings read alike, the source gives them in different places.

What was measured:
[1] = tested on: E. coli; test: Minimal Inhibitory Concentration (MIC) determination, 96 well plates; assay type: cell-based, Escherichia coli; details: Escherichia coli, read-out: MIC (µg/ml) E. coli
Description: (§1) The following methods were used to characterize representative compounds. Minimal Inhibitory Concentration (MIC) determinations. MIC values were determined in 96 well plates, with bacterial growth monitored at OD 600 nm in 200µl following an initial bacterial seeding at approximately 1x10^5 colony forming units (CFU)/ml. Each drug is evaluated at five concentrations, with five data points at each dilution. MIC values (µg/ml) were determined against actively growing cultures in Heart-Brain Infusion (HBI) medium. Cell growth in cultures supplemented with a test compound was calculated as a percent of control at OD 600 nm after 16 to 18 hours at 37°C. This plate format conserves test compound and provides precise, quantitative data with low standard deviation determinations. Polymerase IIIC (Pol IIIC) assay. DNA polymerase activity (or inhibition thereof) was measured in a 96-well plate format. B. subtilis Pol IIIC was isolated as described by Hammond and Brown (Protein Expr. Purif., 3: 65-70 (1992)). Each 25 µl assay contained 30 mM Tris, pH 7.5, 10 mM magnesium acetate, 4 mM dithiothreitol, 20% glycerol, with 25 µM dATP, dCTP, dGTP and 10 µM dTTP (^3H-labelled at 1.44 Ci/mmole) and 0.4 mg/ml activated calf thymus DNA as substrates, as described previously (see Barnes et al, op. cit). Assays were initiated by the addition of 0.025 to 0.06 units of enzyme 1 unit is the amount required to incorporate 250 pmoles of [^3H] dTMP in a standard assay), incubated for 10 minutes at 30°C and terminated by the addition of 200 µl of cold 10% trichloroacetic acid (TCA),10 mM sodium pyrophosphate. Precipitated labeled DNA was collected on glass fiber filter plates, washed, dried, and counted in a liquid scintillation counter. Determination of Ki values. DNA polymerase activity was measured in a 96-well plate format in the absence of dGTP or dATP, depending on the structure of the test compound. Each 25 µl assay contained 30 mM Tris, pH 7.5, 10 mM magnesium acetate, 4 mM dithiothreitol, 20% glycerol, with 25 µM dATP, dCTP, and 10 µM dTTP (^3H-labelled at 1.44 Ci/mmole) and 0.4 mg/ml activated calf thymus DNA as substrates, as described previously. To each well were added 2 µl of compound solution to give final concentrations ranging from 20 - 0.027 µg/ml in the assay. Assays were initiated by the addition of 0.025 to 0.06 units of enzyme (1 unit is the amount required to incorporate 250 pmoles of [^3H] dTMP in a standard assay), incubated for 10 minutes at 30 °C and terminated by the addition of 200 µl of cold 10% trichloroacetic acid, 10 mM sodium pyrophosphate. Precipitated labeled DNA was collected on glass fiber filter plates, washed, dried, and counted in a liquid scintillation counter. Ki is the concentration of test compound that reduces the control polymerase IIIC activity by 50 percent.
(§2) MIC values were determined for the Gram positive bacteria Bacillus subtilis, Staphylococcus aureus (two strains), Enterococcus fecalis, Enterococcus fecium, and for the Gram negative bacterium Escherichia coli.

[2] = tested on: S.aureus (Smith); test: as above; assay type: cell-based, Staphylococcus aureus; details: Staphylococcus aureus, read-out: MIC (µg/ml) S.aureus (Smith)
Description: as §1, with “This plate format conserves test compound and provides precise, quantitative data with low standard deviation determinations.” left out, “To each well were added 2 µl of compound solution to give final concentrations ranging from 20 - 0.027 µg/ml in the assay.” left out
as §2

[3] = tested on: E. fecalis; test: as above; assay type: cell-based, Enterococcus fecalis; details: Enterococcus, read-out: MIC (µg/ml) E. fecalis
Description: as §1, with “This plate format conserves test compound and provides precise, quantitative data with low standard deviation determinations.” left out, “To each well were added 2 µl of compound solution to give final concentrations ranging from 20 - 0.027 µg/ml in the assay.” left out
as §2

[4] = tested on: B. subtilis; test: as above; assay type: cell-based, Bacillus subtilis; details: Bacillus subtilis, read-out: MIC (µg/ml) B. subtilis
Description: as §1, with “This plate format conserves test compound and provides precise, quantitative data with low standard deviation determinations.” left out, “To each well were added 2 µl of compound solution to give final concentrations ranging from 20 - 0.027 µg/ml in the assay.” left out
as §2

[5] = tested on: S. aureus; test: as above; assay type: cell-based, Staphylococcus aureus; details: Staphylococcus aureus, read-out: MIC (µg/ml) S. aureus
Description: as §1, §2

[6] = target: T1, B. subtilis Pol IIIC (Bacillus subtilis, UniProt P13267); test: Polymerase IIIC (Pol IIIC) assay, determination of Ki values; assay type: biochemical; details: assay in absence of dGTP or dATP, Ki is the concentration that reduces control polymerase IIIC activity by 50 percent; for Ki: Ki (µM) Pol IIIC
T1 construct: made in house
T1 sequence (P13267 whole entry): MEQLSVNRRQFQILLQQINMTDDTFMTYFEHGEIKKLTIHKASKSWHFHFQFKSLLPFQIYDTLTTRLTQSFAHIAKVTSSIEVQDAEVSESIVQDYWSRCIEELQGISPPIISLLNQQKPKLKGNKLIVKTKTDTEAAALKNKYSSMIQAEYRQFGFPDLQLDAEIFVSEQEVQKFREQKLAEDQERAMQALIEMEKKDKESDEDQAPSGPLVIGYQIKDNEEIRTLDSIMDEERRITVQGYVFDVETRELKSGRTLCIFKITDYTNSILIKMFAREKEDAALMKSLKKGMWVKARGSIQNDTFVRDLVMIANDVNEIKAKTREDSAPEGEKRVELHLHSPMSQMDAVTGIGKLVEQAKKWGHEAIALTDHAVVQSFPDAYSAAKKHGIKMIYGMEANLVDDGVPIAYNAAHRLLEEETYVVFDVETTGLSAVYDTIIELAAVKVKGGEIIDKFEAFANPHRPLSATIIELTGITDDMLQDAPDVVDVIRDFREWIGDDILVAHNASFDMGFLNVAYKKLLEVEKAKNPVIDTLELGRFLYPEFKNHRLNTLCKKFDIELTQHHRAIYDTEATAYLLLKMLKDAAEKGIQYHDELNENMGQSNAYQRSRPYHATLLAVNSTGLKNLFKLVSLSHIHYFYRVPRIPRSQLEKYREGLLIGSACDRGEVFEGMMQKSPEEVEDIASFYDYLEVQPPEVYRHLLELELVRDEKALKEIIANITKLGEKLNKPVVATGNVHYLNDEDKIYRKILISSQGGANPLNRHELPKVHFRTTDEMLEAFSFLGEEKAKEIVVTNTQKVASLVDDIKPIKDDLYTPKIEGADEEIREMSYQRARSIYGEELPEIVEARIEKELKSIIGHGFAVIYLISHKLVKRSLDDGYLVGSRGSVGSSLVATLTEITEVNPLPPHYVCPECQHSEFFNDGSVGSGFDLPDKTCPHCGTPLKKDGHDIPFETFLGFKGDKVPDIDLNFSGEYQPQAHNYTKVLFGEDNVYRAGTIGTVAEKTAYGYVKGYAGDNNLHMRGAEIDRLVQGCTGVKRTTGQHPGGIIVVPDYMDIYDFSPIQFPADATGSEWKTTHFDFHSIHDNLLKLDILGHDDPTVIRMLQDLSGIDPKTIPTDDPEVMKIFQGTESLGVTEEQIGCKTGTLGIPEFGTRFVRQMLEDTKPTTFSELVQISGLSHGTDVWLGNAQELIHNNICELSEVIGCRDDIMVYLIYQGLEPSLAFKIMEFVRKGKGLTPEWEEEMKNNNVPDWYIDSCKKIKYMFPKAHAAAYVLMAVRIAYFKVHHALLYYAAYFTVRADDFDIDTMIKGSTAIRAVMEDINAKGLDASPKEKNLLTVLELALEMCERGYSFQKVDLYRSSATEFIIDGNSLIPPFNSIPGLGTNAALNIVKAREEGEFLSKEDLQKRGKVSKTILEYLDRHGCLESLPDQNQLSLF
Description: as §1, with “This plate format conserves test compound and provides precise, quantitative data with low standard deviation determinations.” left out, “To each well were added 2 µl of compound solution to give final concentrations ranging from 20 - 0.027 µg/ml in the assay.” left out

[7] = tested on: E. fecium; test: Minimal Inhibitory Concentration (MIC) determination, 96 well plates; assay type: cell-based, Enterococcus fecium; details: Enterococcus, read-out: MIC (µg/ml) E. fecium
Description: as §1, with “This plate format conserves test compound and provides precise, quantitative data with low standard deviation determinations.” left out, “To each well were added 2 µl of compound solution to give final concentrations ranging from 20 - 0.027 µg/ml in the assay.” left out
as §2

[8] = HBI medium, 16 to 18 hours at 37°C

## CCc1cc(Nc2cc(=O)n(CCCCN3CCN(c4c(F)cc5c(=O)c(C(=O)O)cn(C6CC6)c5c4F)C[C@H]3C)c(=O)[nH]2)ccc1C [Compound 72, (R)-3-{4-[1-(1-cyclopropyl-3-carboxy-4-oxo-6,8-difluoro-7-quinolyl)-3-methyl-4-piperazinyl]butyl}-6-(3-ethyl-4-methylanilino)uracil]
[1]; [8]
  MIC: 20 µg/mL (≈ 30.2 µM)
[2]; [8]
  MIC: 0.625 µg/mL (≈ 0.943 µM)
[3]; [8]
  MIC: 1.25 µg/mL (≈ 1.89 µM)
[4]; [8]
  MIC: 0.156 µg/mL (≈ 0.235 µM)
[5]; [8]
  MIC: 0.625 µg/mL (≈ 0.943 µM)
[6]
  Ki: 0.004 µM
[7]; [8]
  MIC: 1.25 µg/mL (≈ 1.89 µM)

## CC1CN(c2c(F)cc3c(=O)c(C(=O)O)cn(C4CC4)c3c2F)CCN1CCCCn1c(=O)cc(Nc2ccc3c(c2)CCC3)[nH]c1=O (stereo not drawn) [Compound 92, 3-{4-[1-(1-cyclopropyl-3-carboxy-4-oxo-6,8-difluoro-7-quinolyl)-3-methyl-4-piperazinyl]butyl}-6-(5-indanylamino)uracil]
[1]; [8]
  MIC: 2.5 µg/mL (≈ 3.78 µM)
[2]; [8]
  MIC: 0.235 µg/mL (≈ 0.356 µM)
[3]; [8]
  MIC: 0.625 µg/mL (≈ 0.946 µM)
[4]; [8]
  MIC: 0.117 µg/mL (≈ 0.177 µM)
[5]; [8]
  MIC: 0.313 µg/mL (≈ 0.474 µM)
[6]
  Ki: 0.016 µM
[7]; [8]
  MIC: 0.937 µg/mL (≈ 1.42 µM)

## Cc1ccc(Nc2cc(=O)n(CCCCN3CCN(c4c(F)cc5c(=O)c(C(=O)O)cn(C6CC6)c5c4F)CC3)c(=O)[nH]2)cc1C [Compound 101, 3-{4-[1-(1-cyclopropyl-3-carboxy-4-oxo-6,8-difluoro-7-quinolyl)-4-piperazinyl]butyl}-6-(3,4-dimethylanilino)uracil]
[1]; [8]
  MIC: 5 µg/mL (≈ 7.88 µM)
[2]; [8]
  MIC: 0.313 µg/mL (≈ 0.493 µM)
[3]; [8]
  MIC: 0.937 µg/mL (≈ 1.48 µM)
[4]; [8]
  MIC: 0.235 µg/mL (≈ 0.37 µM)
[5]; [8]
  MIC: 0.625 µg/mL (≈ 0.985 µM)
[6]
  Ki: 0.024 µM
[7]; [8]
  MIC: 1.25 µg/mL (≈ 1.97 µM)

## CCn1cc(C(=O)O)c(=O)c2cc(F)c(N3CCNCC3)cc21 [nflxn, norfloxacin, reference compound]
[1]
  MIC: 0.078 µg/mL (≈ 0.244 µM)
[2]; [8]
  MIC: 0.156 µg/mL (≈ 0.489 µM)
[3]; [8]
  MIC: 2.5 µg/mL (≈ 7.83 µM)
[4]; [8]
  MIC: 0.625 µg/mL (≈ 1.96 µM)
[5]; [8]
  MIC: 0.625 µg/mL (≈ 1.96 µM)
[6]
  Ki (µM) Pol IIIC: inactive
[7]; [8]
  MIC: 20 µg/mL (≈ 62.6 µM)

## CCc1cc(Nc2cc(=O)n(CCCCN3CCN(c4cc5c(cc4F)c(=O)c(C(=O)O)cn5CC)CC3)c(=O)[nH]2)ccc1C [Compound 1, 3-{4-[1-(1-ethyl-3-carboxy-4-oxo-6-fluoro-7-quinolyl)-4-piperazinyl]butyl}-6-(3-ethyl-4-methylanilino)uracil]
[1]; [8]
  MIC: > 20 µg/mL
[2]; [8]
  MIC: 0.625 µg/mL (≈ 1.01 µM)
[3]; [8]
  MIC: 1.25 µg/mL (≈ 2.02 µM)
[4]; [8]
  MIC: 0.156 µg/mL (≈ 0.252 µM)
[5]; [8]
  MIC: 0.625 µg/mL (≈ 1.01 µM)
[6]
  Ki: 0.024 µM
[7]; [8]
  MIC: 1.25 µg/mL (≈ 2.02 µM)

## Cc1ccc(Nc2cc(=O)n(CCCCN3CCN(c4c(F)cc5c(=O)c(C(=O)O)cn(C6CC6)c5c4F)C[C@H]3C)c(=O)[nH]2)cc1C [Compound 98, (R)-3-{4-[1-(1-cyclopropyl-3-carboxy-4-oxo-6,8-difluoro-7-quinolyl)-3-methyl-4-piperazinyl]butyl}-6-(3,4-dimethylanilino)uracil]
[1]; [8]
  MIC: 5 µg/mL (≈ 7.71 µM)
[2]; [8]
  MIC: 0.625 µg/mL (≈ 0.963 µM)
[3]; [8]
  MIC: 1.25 µg/mL (≈ 1.93 µM)
[4]; [8]
  MIC: 0.313 µg/mL (≈ 0.482 µM)
[5]; [8]
  MIC: 1.25 µg/mL (≈ 1.93 µM)
[6]
  Ki: 0.029 µM
[7]; [8]
  MIC: 1.25 µg/mL (≈ 1.93 µM)

## CCc1cccc(Nc2cc(=O)n(CCCCN3CCN(c4cc5c(cc4F)c(=O)c(C(=O)O)cn5C4CC4)CC3)c(=O)[nH]2)c1 [Compound 66, 3-{4-[1-(1-cyclopropyl-3-carboxy-4-oxo-6-fluoro-7-quinolyl)-4-piperazinyl]butyl}-6-(3-ethylanilino)uracil]
[1]; [8]
  MIC: 6.1 µg/mL (≈ 9.89 µM)
[2]; [8]
  MIC: 0.625 µg/mL (≈ 1.01 µM)
[3]; [8]
  MIC: 1.25 µg/mL (≈ 2.03 µM)
[4]; [8]
  MIC: 0.313 µg/mL (≈ 0.508 µM)
[5]; [8]
  MIC: 0.95 µg/mL (≈ 1.54 µM)
[6]
  Ki: 0.26 µM
[7]; [8]
  MIC: 3.7 µg/mL (≈ 6 µM)

## CCc1cc(Nc2ccc(CCCCN3CCN(c4cc5c(cc4F)c(=O)c(C(=O)O)cn5CC)CC3)c(=O)[nH]2)ccc1C [Compound 78, 3-{4-[1-(1-ethyl-3-carboxy-4-oxo-6-fluoro-7-quinolyl)-4-piperazinyl]butyl}-6-(3-ethyl-4-methylanilino)-2-pyridone]
[1]; [8]
  MIC: > 80 µg/mL
[2]; [8]
  MIC: 2.5 µg/mL (≈ 4.15 µM)
[3]; [8]
  MIC: 5 µg/mL (≈ 8.31 µM)
[4]; [8]
  MIC: 0.625 µg/mL (≈ 1.04 µM)
[5]; [8]
  MIC: 1.25 µg/mL (≈ 2.08 µM)
[6]
  Ki: 2.4 µM
[7]; [8]
  MIC: 5 µg/mL (≈ 8.31 µM)

## Cc1ccc(Nc2cc(=O)n(CCCCN3CCN(c4c(F)cc5c(=O)c(C(=O)O)cn(C6CC6)c5c4F)C[C@@H]3C)c(=O)[nH]2)cc1C [Compound 99, (S)-3-{4-[1-(1-cyclopropyl-3-carboxy-4-oxo-6,8-difluoro-7-quinolyl)-3-methyl-4-piperazinyl]butyl}-6-(3,4-dimethylanilino)uracil]
[1]; [8]
  MIC: 0.625 µg/mL (≈ 0.963 µM)
[2]; [8]
  MIC: 0.156 µg/mL (≈ 0.24 µM)
[3]; [8]
  MIC: 0.625 µg/mL (≈ 0.963 µM)
[4]; [8]
  MIC: 0.156 µg/mL (≈ 0.24 µM)
[5]; [8]
  MIC: 0.313 µg/mL (≈ 0.482 µM)
[6]
  Ki: 0.03 µM
[7]; [8]
  MIC: 1.25 µg/mL (≈ 1.93 µM)

## CCc1cc(Nc2ccc(NC(=O)N3CCN(c4cc5c(cc4F)c(=O)c(C(=O)O)cn5CC)CC3)c(=O)[nH]2)ccc1C [Compound 77, 3-{[1-(1-ethyl-3-carboxy-4-oxo-6-fluoro-7-quinolyl)-4-piperazinyl]carboxamido}-6-(3-ethyl-4-methylanilino)-2-pyridone]
[1]; [8]
  MIC: > 80 µg/mL
[2]
  MIC: 2.5 µg/mL (≈ 4.25 µM)
[3]
  MIC: > 80 µg/mL
[4]
  MIC: 5 µg/mL (≈ 8.49 µM)
[5]
  MIC: 2.5 µg/mL (≈ 4.25 µM)
[7]
  MIC: > 80 µg/mL
